Reference: ChEMBL document CHEMBL4507298 (2021)

Key:
[1] = target: Serine/threonine-protein kinase Nek11 (Homo sapiens) (UniProt Q8NG66); settings: Compound concentration 1000.0 nM
[2] = target: Tyrosine-protein kinase ABL1 (Homo sapiens) (UniProt P00519); settings: Compound concentration 1000.0 nM
[3] = target: Mitogen-activated protein kinase kinase kinase kinase 1 (Homo sapiens) (UniProt Q92918); settings: Compound concentration 1000.0 nM
[4] = target: Death-associated protein kinase 2 (Homo sapiens) (UniProt Q9UIK4); settings: Compound concentration 1000.0 nM
[5] = target: Vasopressin V2 receptor (Homo sapiens) (UniProt P30518); experiment: V2 (h) CEREP ligand profiling; settings: Compound concentration 10.0 uM
[6] = target: Urotensin-2 receptor (Homo sapiens) (UniProt Q9UKP6); experiment: UT (h) CEREP ligand profiling; settings: Compound concentration 10.0 uM
[7] = test system: Tyrosine-protein kinase ABL1 (Homo sapiens), P00519 [H396P]; settings: Compound concentration 1000.0 nM
[8] = target: Mitogen-activated protein kinase kinase kinase 12 (Homo sapiens) (UniProt Q12852); settings: Compound concentration 1000.0 nM
[9] = target: Growth hormone secretagogue receptor type 1 (Homo sapiens) (UniProt Q92847); experiment: Ghrelin (h) (GHS) CEREP ligand profiling; settings: Compound concentration 10.0 uM
[10] = target: D(3) dopamine receptor (Homo sapiens) (UniProt P35462); experiment: D3 (h) CEREP ligand profiling; settings: Compound concentration 10.0 uM
[11] = target: Myosin light chain kinase, smooth muscle (Homo sapiens) (UniProt Q15746); settings: Compound concentration 1000.0 nM
[12] = test system: Proto-oncogene tyrosine-protein kinase receptor Ret (Homo sapiens), P07949 [V804L]; settings: Compound concentration 1000.0 nM
[13] = target: 5-hydroxytryptamine receptor 1A (Homo sapiens) (UniProt P08908); experiment: 5-HT1A (h) CEREP ligand profiling; settings: Compound concentration 10.0 uM
[14] = target: cGMP-dependent protein kinase 2 (Homo sapiens) (UniProt Q13237); settings: Compound concentration 1000.0 nM
[15] = test system: Proto-oncogene tyrosine-protein kinase receptor Ret (Homo sapiens), P07949 [M918T]; settings: Compound concentration 1000.0 nM
[16] = target: Prostaglandin G/H synthase 2 (Homo sapiens) (UniProt P35354); experiment: COX2 (h) CEREP ligand profiling; settings: Compound concentration 10.0 uM
[17] = target: Cyclin-dependent kinase 2 (Homo sapiens) (UniProt P24941); settings: Compound concentration 1000.0 nM
[18] = target: D(2) dopamine receptor (Homo sapiens) (UniProt P14416); experiment: D2S (h) CEREP ligand profiling; settings: Compound concentration 10.0 uM
[19] = target: T1, Alpha-2C adrenergic receptor (Homo sapiens) (UniProt P18825); experiment: alpha 2C (h) CEREP ligand profiling; settings: Compound concentration 10.0 uM
T1 sequence (whole entry): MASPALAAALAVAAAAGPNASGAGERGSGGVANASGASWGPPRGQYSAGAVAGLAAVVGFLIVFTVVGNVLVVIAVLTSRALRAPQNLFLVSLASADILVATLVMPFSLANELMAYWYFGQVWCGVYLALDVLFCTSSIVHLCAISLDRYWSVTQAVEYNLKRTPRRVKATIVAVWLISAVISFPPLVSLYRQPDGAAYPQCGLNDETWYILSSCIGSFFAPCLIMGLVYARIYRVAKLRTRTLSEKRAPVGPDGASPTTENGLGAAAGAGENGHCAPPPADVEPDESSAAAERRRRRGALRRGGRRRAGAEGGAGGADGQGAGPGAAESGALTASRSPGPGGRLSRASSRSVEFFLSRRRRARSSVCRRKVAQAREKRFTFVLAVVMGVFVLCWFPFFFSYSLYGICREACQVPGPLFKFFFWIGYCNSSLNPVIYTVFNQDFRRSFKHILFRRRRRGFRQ

[20] = target: cGMP-specific 3',5'-cyclic phosphodiesterase (Homo sapiens) (UniProt O76074); experiment: PDE5 (h) CEREP ligand profiling; settings: Compound concentration 10.0 uM
[21] = target: TRAF2 and NCK-interacting protein kinase (Homo sapiens) (UniProt Q9UKE5); settings: Compound concentration 1000.0 nM
[22] = target: Cyclin-dependent kinase 8 (Homo sapiens) (UniProt P49336); settings: Compound concentration 1000.0 nM
[23] = target: Tyrosine-protein kinase Lck (Homo sapiens) (UniProt P06239); settings: Compound concentration 1000.0 nM
[24] = target: Acetylcholinesterase (Homo sapiens) (UniProt P22303); experiment: Acetylcholinesterase (h) CEREP ligand profiling; settings: Compound concentration 10.0 uM
[25] = target: Serine/threonine-protein kinase 38 (Homo sapiens) (UniProt Q15208); settings: Compound concentration 1000.0 nM
[26] = target: Transient receptor potential cation channel subfamily M member 6 (Homo sapiens) (UniProt Q9BX84); settings: Compound concentration 1000.0 nM
[27] = target: Tyrosine-protein kinase Lyn (Homo sapiens) (UniProt P07948); settings: Compound concentration 1000.0 nM
[28] = test system: Tyrosine-protein kinase ABL1 (Homo sapiens), P00519 [Q252H]; settings: Compound concentration 1000.0 nM
[29] = target: D(2) dopamine receptor (Homo sapiens) (UniProt P14416); experiment: D2S (h) (agonist site) CEREP ligand profiling; settings: Compound concentration 10.0 uM
[30] = target: Peroxisome proliferator-activated receptor gamma (Homo sapiens) (UniProt P37231); experiment: PPAR gamma (h) CEREP ligand profiling; settings: Compound concentration 10.0 uM
[31] = target: Sodium/potassium-transporting ATPase (Homo sapiens) (UniProt P05023+P14415+P05026+P50993+P54709+P13637+Q13733+P54710); experiment: ATPase (Na+/K+) CEREP ligand profiling; type: protein-complex assay; settings: Compound concentration 10.0 uM
[32] = target: Melanocortin receptor 4 (Homo sapiens) (UniProt P32245); experiment: MC4 (h) CEREP ligand profiling; settings: Compound concentration 10.0 uM
[33] = target: Glutamate [NMDA] receptor (Homo sapiens) (UniProt Q05586+Q12879+Q13224+O15399+O60391+Q14957+Q8TCU5); experiment: NMDA CEREP ligand profiling; type: protein-complex assay; settings: Compound concentration 10.0 uM
[34] = target: Serine/threonine-protein kinase PAK 1 (Homo sapiens) (UniProt Q13153); settings: Compound concentration 1000.0 nM
[35] = target: Aurora kinase C (Homo sapiens) (UniProt Q9UQB9); settings: Compound concentration 1000.0 nM
[36] = target: Na+ channel (site 2), sodium channel alpha subunit (Homo sapiens, UniProt P35498+P35499+Q01118+Q14524+Q15858+Q99250+Q9NY46+Q9UI33+Q9UQD0+Q9Y5Y9); experiment: Na+ channel (site 2) CEREP ligand profiling; type: protein assay; settings: compound concentration 10 uM
[37] = target: Casein kinase I isoform epsilon (Homo sapiens) (UniProt P49674); settings: Compound concentration 1000.0 nM

Chain of D(2) dopamine receptor (Homo sapiens) (P14416 whole entry): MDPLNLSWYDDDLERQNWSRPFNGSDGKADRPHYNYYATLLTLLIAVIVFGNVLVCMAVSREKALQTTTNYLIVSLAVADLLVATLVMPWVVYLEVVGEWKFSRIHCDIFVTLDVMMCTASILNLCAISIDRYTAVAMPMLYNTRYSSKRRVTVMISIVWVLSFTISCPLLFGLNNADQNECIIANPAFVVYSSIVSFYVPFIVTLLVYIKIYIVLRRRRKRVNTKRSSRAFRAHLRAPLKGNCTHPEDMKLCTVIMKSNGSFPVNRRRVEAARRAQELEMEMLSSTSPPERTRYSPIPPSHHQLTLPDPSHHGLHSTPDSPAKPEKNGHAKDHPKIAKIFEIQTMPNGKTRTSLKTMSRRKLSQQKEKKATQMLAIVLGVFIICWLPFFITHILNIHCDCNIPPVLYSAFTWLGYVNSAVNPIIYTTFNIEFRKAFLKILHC
Chain of Serine/threonine-protein kinase PAK 1 (Homo sapiens) (Q13153 whole entry): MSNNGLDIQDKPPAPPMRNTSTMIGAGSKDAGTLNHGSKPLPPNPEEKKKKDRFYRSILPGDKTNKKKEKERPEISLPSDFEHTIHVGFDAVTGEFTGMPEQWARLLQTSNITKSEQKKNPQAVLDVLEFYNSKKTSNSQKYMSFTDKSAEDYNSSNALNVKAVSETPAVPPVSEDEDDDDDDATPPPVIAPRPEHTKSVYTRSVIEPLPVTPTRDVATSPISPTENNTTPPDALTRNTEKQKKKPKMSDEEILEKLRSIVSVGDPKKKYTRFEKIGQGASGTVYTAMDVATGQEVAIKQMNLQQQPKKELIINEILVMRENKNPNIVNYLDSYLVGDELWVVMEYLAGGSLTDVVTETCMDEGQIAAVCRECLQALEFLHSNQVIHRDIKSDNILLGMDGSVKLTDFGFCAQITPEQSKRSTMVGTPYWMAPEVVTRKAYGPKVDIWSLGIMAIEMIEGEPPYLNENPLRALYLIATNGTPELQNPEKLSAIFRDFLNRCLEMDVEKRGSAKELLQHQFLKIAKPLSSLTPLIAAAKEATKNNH
Chain of Mitogen-activated protein kinase kinase kinase kinase 1 (Homo sapiens) (Q92918 whole entry, looked up): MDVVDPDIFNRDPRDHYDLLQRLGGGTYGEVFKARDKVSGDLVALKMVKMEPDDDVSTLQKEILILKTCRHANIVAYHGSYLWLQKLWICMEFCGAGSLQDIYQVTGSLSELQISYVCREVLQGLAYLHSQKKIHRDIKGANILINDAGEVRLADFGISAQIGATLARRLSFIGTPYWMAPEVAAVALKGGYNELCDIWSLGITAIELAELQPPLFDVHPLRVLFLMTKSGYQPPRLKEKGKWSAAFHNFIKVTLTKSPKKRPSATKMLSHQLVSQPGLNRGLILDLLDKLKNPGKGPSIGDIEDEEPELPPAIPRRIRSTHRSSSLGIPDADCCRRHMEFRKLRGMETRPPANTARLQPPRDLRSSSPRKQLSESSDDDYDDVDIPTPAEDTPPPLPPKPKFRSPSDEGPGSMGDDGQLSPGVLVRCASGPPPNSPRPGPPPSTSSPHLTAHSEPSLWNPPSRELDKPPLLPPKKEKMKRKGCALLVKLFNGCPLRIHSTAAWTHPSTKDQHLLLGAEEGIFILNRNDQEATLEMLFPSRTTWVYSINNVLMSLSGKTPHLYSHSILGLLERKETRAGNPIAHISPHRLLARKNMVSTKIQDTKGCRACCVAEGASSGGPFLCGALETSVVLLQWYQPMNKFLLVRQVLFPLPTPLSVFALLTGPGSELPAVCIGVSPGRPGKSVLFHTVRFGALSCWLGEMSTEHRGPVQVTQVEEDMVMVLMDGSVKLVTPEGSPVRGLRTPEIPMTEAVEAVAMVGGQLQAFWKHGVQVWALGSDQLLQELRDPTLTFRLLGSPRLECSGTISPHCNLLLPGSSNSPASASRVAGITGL
Chain of Proto-oncogene tyrosine-protein kinase receptor Ret (Homo sapiens), P07949 [V804L] (P07949 whole entry V804L): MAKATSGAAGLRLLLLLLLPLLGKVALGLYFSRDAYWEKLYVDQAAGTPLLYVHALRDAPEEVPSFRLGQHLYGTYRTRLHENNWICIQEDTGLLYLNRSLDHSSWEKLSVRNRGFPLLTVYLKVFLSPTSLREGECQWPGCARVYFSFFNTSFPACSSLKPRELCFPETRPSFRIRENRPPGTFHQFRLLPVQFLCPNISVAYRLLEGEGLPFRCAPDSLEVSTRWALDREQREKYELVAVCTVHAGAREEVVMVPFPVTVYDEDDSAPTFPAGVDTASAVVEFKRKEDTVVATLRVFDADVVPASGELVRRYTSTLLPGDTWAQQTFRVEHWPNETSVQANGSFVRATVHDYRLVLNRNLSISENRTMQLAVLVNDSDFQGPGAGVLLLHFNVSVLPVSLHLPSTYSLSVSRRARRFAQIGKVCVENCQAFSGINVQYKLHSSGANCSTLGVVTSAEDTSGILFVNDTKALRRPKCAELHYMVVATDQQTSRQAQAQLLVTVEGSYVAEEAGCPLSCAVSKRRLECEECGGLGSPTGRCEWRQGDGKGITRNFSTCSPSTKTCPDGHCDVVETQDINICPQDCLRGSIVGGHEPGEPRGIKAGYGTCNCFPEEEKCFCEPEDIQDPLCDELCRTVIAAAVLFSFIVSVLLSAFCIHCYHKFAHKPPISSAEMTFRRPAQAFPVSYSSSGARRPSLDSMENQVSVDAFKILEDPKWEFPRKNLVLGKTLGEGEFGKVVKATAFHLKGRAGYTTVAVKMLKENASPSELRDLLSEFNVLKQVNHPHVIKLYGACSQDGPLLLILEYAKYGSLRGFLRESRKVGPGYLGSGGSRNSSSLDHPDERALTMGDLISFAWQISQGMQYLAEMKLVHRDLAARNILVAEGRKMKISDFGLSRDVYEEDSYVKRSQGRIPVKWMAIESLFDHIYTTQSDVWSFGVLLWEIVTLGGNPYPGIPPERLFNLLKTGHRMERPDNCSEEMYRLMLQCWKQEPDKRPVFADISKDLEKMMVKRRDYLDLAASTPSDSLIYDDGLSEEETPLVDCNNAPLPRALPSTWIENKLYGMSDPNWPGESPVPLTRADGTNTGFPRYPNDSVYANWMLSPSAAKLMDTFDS
Chain of Serine/threonine-protein kinase 38 (Homo sapiens) (Q15208 2-465 limits assumed): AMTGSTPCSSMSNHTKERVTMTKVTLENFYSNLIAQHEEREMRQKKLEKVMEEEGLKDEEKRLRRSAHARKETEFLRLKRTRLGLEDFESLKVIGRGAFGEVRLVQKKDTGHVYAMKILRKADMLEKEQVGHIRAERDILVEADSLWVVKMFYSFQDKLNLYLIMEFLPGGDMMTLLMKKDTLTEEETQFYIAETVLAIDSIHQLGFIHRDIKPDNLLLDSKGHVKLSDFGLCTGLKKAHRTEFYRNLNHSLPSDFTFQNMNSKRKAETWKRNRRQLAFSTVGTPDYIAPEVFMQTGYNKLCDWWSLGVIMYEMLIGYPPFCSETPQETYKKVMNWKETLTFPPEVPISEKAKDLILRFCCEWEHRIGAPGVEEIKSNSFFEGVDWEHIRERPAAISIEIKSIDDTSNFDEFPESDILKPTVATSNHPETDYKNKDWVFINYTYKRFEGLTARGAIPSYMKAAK
Chain of Peroxisome proliferator-activated receptor gamma (Homo sapiens) (P37231 whole entry): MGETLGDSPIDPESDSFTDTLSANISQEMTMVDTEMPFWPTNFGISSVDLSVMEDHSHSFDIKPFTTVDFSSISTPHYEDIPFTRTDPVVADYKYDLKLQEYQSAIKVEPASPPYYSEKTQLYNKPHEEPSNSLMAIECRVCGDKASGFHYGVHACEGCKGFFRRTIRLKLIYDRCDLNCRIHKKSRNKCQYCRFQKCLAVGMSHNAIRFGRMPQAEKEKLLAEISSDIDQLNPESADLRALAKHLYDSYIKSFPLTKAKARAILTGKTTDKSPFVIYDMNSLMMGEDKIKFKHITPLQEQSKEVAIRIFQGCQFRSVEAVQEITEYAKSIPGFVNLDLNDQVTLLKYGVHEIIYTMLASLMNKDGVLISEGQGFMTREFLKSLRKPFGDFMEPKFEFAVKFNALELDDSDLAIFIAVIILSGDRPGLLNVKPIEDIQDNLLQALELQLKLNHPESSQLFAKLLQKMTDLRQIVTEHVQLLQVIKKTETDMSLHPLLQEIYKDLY
Chain of Death-associated protein kinase 2 (Homo sapiens) (Q9UIK4 whole entry, looked up): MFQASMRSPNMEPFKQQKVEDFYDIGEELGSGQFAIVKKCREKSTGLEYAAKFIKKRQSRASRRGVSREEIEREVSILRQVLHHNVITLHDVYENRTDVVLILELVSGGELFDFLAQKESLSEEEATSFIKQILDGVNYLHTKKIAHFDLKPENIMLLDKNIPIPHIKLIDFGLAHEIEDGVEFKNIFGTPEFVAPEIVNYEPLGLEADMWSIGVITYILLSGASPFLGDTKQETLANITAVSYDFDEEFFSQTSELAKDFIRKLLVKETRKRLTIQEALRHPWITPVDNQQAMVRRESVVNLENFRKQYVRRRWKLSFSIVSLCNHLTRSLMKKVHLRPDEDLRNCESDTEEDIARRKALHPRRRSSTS
Chain of Tyrosine-protein kinase Lyn (Homo sapiens) (P07948 2-512 limits assumed): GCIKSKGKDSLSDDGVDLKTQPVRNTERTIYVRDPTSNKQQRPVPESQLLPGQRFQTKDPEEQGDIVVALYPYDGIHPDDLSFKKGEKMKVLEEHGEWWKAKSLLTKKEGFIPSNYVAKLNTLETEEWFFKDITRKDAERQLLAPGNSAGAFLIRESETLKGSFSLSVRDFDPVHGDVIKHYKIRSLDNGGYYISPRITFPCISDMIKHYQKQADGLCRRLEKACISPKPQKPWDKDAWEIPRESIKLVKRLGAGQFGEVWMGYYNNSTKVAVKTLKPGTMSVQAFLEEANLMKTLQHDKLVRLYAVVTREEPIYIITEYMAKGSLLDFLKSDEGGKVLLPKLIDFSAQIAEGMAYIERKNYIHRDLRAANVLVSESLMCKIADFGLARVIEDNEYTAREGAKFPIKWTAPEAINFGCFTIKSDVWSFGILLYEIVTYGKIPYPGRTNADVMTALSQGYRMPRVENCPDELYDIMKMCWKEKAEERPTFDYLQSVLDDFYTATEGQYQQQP
Chain of Proto-oncogene tyrosine-protein kinase receptor Ret (Homo sapiens), P07949 [M918T] (P07949 whole entry M918T): as the sequence (P07949 whole entry V804L) above, with L804V, M918T counted along it

## COc1ccc2cc(OCC3(C(=O)O)CN(C(=O)c4ccc(F)cc4)C3)ccc2c1 [PF-04418948]
[1]
  residual activity: 93%
[2]
  residual activity: 78%
[3]
  residual activity: 95%
[4]
  residual activity: 98%
[5]
  inhibition: -1%
[6]
  inhibition: 14%
[7]
  residual activity: 74%
[8]
  residual activity: 97%
[9]
  inhibition: -6%
[10]
  inhibition: 1%
[11]
  residual activity: 84%
[12]
  residual activity: 78%
[13]
  inhibition: 6%
[14]
  residual activity: 85%
[15]
  residual activity: 75%
[16]
  inhibition: 2%
[17]
  residual activity: 91%
[18]
  inhibition: -2%
[19]
  inhibition: 4%
[20]
  inhibition: 6%
[21]
  residual activity: 61%
[22]
  residual activity: 94%
[23]
  residual activity: 80%
[24]
  inhibition: 45%
[25]
  residual activity: 98%
[26]
  residual activity: 98%
[27]
  residual activity: 85%
[28]
  residual activity: 90%
[29]
  inhibition: -6%
[30]
  inhibition: 14%
[31]
  inhibition: 5%
[32]
  inhibition: 8%
[33]
  inhibition: 1%
[34]
  residual activity: 87%
[35]
  residual activity: 98%
[36]
  inhibition at 10 µM: 9% (not active)
[37]
  residual activity: 94%
